Source: PMC4710522, “A Novel Triazolopyridine-Based Spleen Tyrosine Kinase Inhibitor That Arrests Joint Inflammation” (PLoS ONE, 2016)

How the values were obtained:
[1] = system: rat collagen-induced arthritis model; test: rat collagen-induced arthritis (CIA) model, paw swelling; format: in vivo; details: for inhibition of paw swelling: 8 days
Description: Female Lewis rats (150 – 170g; Charles River Laboratories) were house standard shoebox cages, fed Harlan-Tekald diet and water ad libitum and maintained on a 12h light/dark cycle. For induction of arthritis rats were anesthetized with isofluorane and their entire dorsal area shaved. Rats were injected (intradermal) with 100 μl of equal volumes of collagen (Chrondrex, Redmond, WA) and IFA (Sigma Chemicals, St. Louis, MO) emulsion in 10 sites across the dorsal region. At disease onset 11 days following immunization animals were randomized into groups based on their ankle measurements and test article administration was initiated. Rats were dosed orally with vehicle (20% Captisol®), Indomethacin (Sigma Chemicals, St. Louis, MO, 2mg/kg) or CC-509 (15, 25mg/kg QD or 15mg/kg BID) in a dose volume of 5ml/kg. […] On the last day of the study animals were split into 2 cohorts and bleed twice via tail bleed under isofluorane anesthesia and a third terminal bleed following CO2 asphyxiation to obtain a time course of plasma compound exposure at 30minutes, 1, 2, 4, 8 and 24h after the last dose of CC-509.
For the TEL-Syk assay, the intensity values for the 700 and 800 channel were exported as text files in ActivityBase (IDBS, Guildford, UK) to derive the ratios that reflect kinase activity. For LAD2 experiments, enzyme activity values were exported as text files into ActivityBase to calculate “percent release” according to the formula: 100* supernatant OD405/ (supernatant OD405 + (pellet OD405*pellet dilution factor)). For the basophil and B-cells assays, flow cytometry data was exported from the FACS Array and processed using FloJo software package (TreeStar, Inc., Ashland, Oregon). For the JAK2 HEL and Ramos NFAT β-lactamase assays, the fluorescence values obtained at 460 nm and 530 nm were exported into ActivityBase to calculate response ratios. For the neutrophil, macrophage, KDR, and JAK1/3 assays, raw values were exported into ActivityBase to calculate percent inhibition. All IC50 calculations were generated using XLfit (IDBS, Guildford, UK) algorithm 205 within Excel. For PCA, the OD from the saline injected site was subtracted from the OD from the anti-DNP IgE injected site. Evans blue dye extravasation was expressed as mean ± SEM and % inhibition for the test article groups was normalized to the cromolyn positive control. For the CIA model paw measurements (left and right ankle diameter) were taken for each individual animal and averaged. The mean data from each group was plotted and either the AUC(day 11–18) or % inhibition on day 18 was calculated. Data is expressed as mean ± SEM of each group with n = 6–12. Statistical analysis was performed with Prism Graphpad using one-way ANOVA followed by Dunnett’s comparison using the vehicle group as the control or for measurements over time a 2 way ANOVA followed by a Dunnett’s multiple comparison test. Statistical significance was deemed as * = p<0.05, **p<0.01, ***p<0.001 and p<0.0001.

[2] = biological target: T1, MELK_h (Homo sapiens, UniProt Q14680); test: SelectScreen kinase assay; format: biochemical; details: KM ATP, read-out: % control
T1 construct: purchased Life Technologies (Invitrogen) SelectScreen, Z'-LYTE / Adapta
T1 sequence (Q14680 whole entry): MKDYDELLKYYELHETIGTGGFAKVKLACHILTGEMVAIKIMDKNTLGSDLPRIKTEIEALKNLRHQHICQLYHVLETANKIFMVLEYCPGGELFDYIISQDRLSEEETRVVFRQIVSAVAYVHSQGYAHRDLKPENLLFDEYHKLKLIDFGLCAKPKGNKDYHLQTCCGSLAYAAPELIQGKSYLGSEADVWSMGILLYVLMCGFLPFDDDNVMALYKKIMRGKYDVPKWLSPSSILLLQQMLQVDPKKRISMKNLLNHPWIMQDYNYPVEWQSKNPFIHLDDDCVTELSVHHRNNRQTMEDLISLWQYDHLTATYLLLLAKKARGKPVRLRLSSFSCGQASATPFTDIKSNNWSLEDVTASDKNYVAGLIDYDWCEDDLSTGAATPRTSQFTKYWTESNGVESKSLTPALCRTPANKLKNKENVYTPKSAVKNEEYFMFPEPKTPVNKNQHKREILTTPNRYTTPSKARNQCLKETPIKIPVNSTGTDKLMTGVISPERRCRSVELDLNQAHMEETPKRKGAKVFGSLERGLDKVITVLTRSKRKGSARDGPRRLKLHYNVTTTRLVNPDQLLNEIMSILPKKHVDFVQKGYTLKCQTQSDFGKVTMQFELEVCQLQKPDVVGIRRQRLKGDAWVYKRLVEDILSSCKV
Description: (§1) Syk kinase mode of inhibition studies, including parameters described in Fig 1, were conducted on the LC3000 platform by Caliper Life Sciences (Hopkinton, MA) according to standard protocols developed by the supplier. […] Non-kinase enzyme assays and GPCR, ion channel, and transporter binding assays were run by CEREP (France). Non-GLP manual patch clamp hERG assays were run by ChanTest (Cleveland, Ohio). Vivid® Assay kits (Life Technologies) were used to measure the cytochrome P450 inhibition of the compound against CYP3A, CYP2C9, CYP2C19, CYP2D6, and CYP1A2, as described.
(§2) Kinase activity was measured using either the Z’-Lyte® or the Adapta® protocols as part of the SelectScreen™ profiling service offered at Life Technologies (Grand Island, NY). For the single point measurements (Part A), CC-509 was kept constant at 3 µM while ATP concentrations [ATP] used were at the KM for ATP (KM ATP) for that specific enyzme, at 10 or 100 µM ATP (10 ATP or 100 ATP, respectively), as indicated. Values expressed as percent control (% control) relative to DMSO-only wells (uninhibited, 100%).
(§3) Kinase activity was measured using either the Z’-Lyte® or the Adapta® protocols as part of the SelectScreen™ profiling service offered at Life Technologies (Grand Island, NY). […] Values expressed as percent control (% control) relative to DMSO-only wells (uninhibited, 100%).

[3] = biological target: T2, TrkA_h (Homo sapiens, UniProt P04629); test: SelectScreen kinase assay; format: biochemical; details: KM ATP, read-out: % control
T2 construct: purchased Life Technologies (Invitrogen) SelectScreen, Z'-LYTE / Adapta
T2 sequence (P04629 33-796): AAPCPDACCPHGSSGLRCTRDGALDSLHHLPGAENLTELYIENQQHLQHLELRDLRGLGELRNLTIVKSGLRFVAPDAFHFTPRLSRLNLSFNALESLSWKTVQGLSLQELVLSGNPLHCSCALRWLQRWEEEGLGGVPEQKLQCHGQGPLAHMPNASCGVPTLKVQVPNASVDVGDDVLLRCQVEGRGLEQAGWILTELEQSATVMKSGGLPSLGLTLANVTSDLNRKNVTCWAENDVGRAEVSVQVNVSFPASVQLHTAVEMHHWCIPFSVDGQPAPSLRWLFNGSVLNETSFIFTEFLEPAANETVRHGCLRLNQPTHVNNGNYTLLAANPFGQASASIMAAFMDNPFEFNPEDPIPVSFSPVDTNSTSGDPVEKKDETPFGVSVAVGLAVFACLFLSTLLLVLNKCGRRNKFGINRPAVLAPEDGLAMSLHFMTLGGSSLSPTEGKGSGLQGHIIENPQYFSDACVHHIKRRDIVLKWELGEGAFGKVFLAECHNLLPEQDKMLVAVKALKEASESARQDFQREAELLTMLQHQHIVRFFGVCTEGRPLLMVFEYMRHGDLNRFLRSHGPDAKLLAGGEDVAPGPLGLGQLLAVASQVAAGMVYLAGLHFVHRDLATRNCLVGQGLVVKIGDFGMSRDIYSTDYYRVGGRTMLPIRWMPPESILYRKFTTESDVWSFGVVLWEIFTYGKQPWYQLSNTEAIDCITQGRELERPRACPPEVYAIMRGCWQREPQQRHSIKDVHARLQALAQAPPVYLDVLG
Description: as §1, §2, §3

[4] = biological target: T3, DYR1A_h (Homo sapiens, UniProt Q13627); test: SelectScreen kinase assay; format: biochemical; details: KM ATP, read-out: % control
T3 construct: purchased Life Technologies (Invitrogen) SelectScreen, Z'-LYTE / Adapta
Description: as §1, §2, §3

[5] = biological target: T4, Abl_G250E_h (Homo sapiens, UniProt P00519, G250E); test: SelectScreen kinase assay; format: biochemical; details: KM ATP, read-out: % control
T4 construct: purchased Life Technologies (Invitrogen) SelectScreen, Z'-LYTE / Adapta
Description: as §1, §2, §3

[6] = biological target: T5, CDK7_h (Homo sapiens, UniProt P50613); test: SelectScreen kinase assay; format: biochemical; details: KM ATP, read-out: % control
T5 construct: purchased Life Technologies (Invitrogen) SelectScreen, Z'-LYTE / Adapta
Description: as §1, §2, §3

[7] = biological target: T6, Hck_h (Homo sapiens, UniProt P08631); test: SelectScreen kinase assay; format: biochemical; details: KM ATP, read-out: % control
T6 construct: purchased Life Technologies (Invitrogen) SelectScreen, Z'-LYTE / Adapta
T6 sequence (P08631 whole entry): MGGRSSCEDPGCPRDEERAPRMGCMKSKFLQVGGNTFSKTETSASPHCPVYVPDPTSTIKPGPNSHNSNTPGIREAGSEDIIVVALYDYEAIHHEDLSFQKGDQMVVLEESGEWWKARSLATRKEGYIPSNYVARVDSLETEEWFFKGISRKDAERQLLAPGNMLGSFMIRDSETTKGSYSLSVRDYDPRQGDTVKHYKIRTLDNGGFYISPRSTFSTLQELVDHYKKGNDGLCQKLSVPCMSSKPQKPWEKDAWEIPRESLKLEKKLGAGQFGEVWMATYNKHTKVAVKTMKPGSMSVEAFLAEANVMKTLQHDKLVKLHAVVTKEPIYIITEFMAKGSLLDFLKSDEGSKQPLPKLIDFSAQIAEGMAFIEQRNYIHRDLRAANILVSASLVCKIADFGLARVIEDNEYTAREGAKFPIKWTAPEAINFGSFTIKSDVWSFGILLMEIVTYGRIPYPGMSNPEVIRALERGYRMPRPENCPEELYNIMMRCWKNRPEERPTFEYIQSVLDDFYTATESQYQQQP
Description: as §1, §2, §3

[8] = biological target: T7, GSK3-alpha_h (Homo sapiens, UniProt P49840); test: SelectScreen kinase assay; format: biochemical; details: KM ATP, read-out: % control
T7 construct: purchased Life Technologies (Invitrogen) SelectScreen, Z'-LYTE / Adapta
Description: as §1, §2, §3

[9] = biological target: T8, p70S6K_h (Homo sapiens, UniProt P23443); test: SelectScreen kinase assay; format: biochemical; details: KM ATP, read-out: % control
T8 construct: purchased Life Technologies (Invitrogen) SelectScreen, Z'-LYTE / Adapta
T8 sequence (P23443 whole entry): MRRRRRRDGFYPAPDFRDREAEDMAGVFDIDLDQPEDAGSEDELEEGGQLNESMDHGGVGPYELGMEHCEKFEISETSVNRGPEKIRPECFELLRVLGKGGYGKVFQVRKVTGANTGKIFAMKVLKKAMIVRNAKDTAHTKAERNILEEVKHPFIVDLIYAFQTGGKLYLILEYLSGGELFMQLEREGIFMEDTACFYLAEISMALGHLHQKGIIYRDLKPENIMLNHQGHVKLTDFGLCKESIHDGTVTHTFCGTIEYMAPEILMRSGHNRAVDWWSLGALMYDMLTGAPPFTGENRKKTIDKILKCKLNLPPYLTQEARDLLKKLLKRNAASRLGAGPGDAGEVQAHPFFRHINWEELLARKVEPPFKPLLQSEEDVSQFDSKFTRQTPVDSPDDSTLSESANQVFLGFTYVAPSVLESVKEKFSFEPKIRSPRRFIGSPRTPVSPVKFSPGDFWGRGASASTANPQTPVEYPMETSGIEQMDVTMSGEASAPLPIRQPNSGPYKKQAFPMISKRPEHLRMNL
Description: as §1, §2, §3

[10] = biological target: T9, SGK3_h (Homo sapiens, UniProt Q96BR1); test: SelectScreen kinase assay; format: biochemical; details: KM ATP, read-out: % control
T9 construct: purchased Life Technologies (Invitrogen) SelectScreen, Z'-LYTE / Adapta
Description: as §1, §2, §3

[11] = biological target: T10, Hgk_h (Homo sapiens, UniProt O95819); test: SelectScreen kinase assay; format: biochemical; details: KM ATP, read-out: % control
T10 construct: purchased Life Technologies (Invitrogen) SelectScreen, Z'-LYTE / Adapta
T10 sequence (O95819 whole entry): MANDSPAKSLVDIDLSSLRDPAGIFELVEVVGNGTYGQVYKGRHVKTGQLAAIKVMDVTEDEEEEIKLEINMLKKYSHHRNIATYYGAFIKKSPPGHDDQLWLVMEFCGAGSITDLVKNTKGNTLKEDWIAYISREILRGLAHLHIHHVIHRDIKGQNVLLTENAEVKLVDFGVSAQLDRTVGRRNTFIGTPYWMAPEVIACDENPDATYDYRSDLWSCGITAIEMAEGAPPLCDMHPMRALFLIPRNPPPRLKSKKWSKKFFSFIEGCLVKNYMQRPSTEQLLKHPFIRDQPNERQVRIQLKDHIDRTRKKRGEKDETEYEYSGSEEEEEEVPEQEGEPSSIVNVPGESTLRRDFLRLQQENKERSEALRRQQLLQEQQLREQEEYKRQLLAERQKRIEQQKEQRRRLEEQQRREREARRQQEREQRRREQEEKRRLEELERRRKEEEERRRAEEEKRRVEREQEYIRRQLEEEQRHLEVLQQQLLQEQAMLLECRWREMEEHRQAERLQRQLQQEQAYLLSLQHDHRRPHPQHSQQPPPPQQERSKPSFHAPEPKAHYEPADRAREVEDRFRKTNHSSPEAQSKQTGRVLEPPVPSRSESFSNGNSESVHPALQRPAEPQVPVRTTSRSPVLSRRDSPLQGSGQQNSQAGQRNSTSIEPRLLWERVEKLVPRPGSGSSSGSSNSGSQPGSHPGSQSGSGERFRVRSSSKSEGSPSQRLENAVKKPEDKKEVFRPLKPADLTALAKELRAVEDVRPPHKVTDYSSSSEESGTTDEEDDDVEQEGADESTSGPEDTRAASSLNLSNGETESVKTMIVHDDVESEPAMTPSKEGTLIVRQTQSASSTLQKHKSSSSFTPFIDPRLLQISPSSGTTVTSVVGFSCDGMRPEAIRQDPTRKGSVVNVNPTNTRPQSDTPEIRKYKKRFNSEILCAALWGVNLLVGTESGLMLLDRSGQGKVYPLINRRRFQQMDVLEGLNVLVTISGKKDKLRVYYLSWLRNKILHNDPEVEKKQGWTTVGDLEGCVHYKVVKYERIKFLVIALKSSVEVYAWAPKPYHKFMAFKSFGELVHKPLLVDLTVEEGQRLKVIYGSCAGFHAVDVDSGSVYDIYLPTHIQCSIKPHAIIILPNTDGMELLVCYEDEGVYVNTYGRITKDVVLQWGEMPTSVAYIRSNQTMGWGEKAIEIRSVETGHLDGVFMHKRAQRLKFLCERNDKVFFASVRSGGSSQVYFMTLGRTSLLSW
Description: as §1, §2, §3

[12] = biological target: T11, PDGFR-alpha_V561D_h (Homo sapiens, UniProt P16234, V561D); test: SelectScreen kinase assay; format: biochemical; details: KM ATP, read-out: % control
T11 construct: purchased Life Technologies (Invitrogen) SelectScreen, Z'-LYTE / Adapta
Description: as §1, §2, §3

[13] = biological target: T12, IRAK4_h (Homo sapiens, UniProt Q9NWZ3); test: SelectScreen kinase assay; format: biochemical; details: KM ATP, read-out: % control
T12 construct: purchased Life Technologies (Invitrogen) SelectScreen, Z'-LYTE / Adapta
Description: as §1, §2, §3

[14] = biological target: T13, CaMKII-beta_h (Homo sapiens, UniProt Q13554); test: SelectScreen kinase assay; format: biochemical; details: KM ATP, read-out: % control
T13 construct: purchased Life Technologies (Invitrogen) SelectScreen, Z'-LYTE / Adapta
Description: as §1, §2, §3

[15] = biological target: T14, HIPK4_h (Homo sapiens, UniProt Q8NE63); test: SelectScreen kinase assay; format: biochemical; details: KM ATP, read-out: % control
T14 construct: purchased Life Technologies (Invitrogen) SelectScreen, Z'-LYTE / Adapta
T14 sequence (Q8NE63 whole entry): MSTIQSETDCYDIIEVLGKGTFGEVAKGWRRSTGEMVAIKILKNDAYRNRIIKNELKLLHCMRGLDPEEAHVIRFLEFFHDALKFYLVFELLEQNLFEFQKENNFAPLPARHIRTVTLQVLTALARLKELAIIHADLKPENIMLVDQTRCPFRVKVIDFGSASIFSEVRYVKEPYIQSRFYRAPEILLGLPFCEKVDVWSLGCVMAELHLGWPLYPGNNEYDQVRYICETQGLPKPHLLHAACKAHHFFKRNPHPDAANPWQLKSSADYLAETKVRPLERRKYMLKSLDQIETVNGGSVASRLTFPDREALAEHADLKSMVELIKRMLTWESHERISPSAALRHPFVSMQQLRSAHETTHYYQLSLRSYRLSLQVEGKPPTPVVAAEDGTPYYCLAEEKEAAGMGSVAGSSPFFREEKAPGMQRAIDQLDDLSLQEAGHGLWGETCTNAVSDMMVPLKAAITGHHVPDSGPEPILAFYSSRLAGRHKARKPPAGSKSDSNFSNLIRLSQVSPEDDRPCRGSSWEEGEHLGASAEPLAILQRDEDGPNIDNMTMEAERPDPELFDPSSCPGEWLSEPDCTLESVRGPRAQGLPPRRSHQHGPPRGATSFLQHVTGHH
Description: as §1, §2, §3

[16] = biological target: T15, p38-alpha_h (Homo sapiens, UniProt Q16539); test: SelectScreen kinase assay; format: biochemical; details: 100 µM ATP, read-out: % control
T15 construct: purchased Life Technologies (Invitrogen) SelectScreen, Z'-LYTE / Adapta
T15 sequence (Q16539 whole entry): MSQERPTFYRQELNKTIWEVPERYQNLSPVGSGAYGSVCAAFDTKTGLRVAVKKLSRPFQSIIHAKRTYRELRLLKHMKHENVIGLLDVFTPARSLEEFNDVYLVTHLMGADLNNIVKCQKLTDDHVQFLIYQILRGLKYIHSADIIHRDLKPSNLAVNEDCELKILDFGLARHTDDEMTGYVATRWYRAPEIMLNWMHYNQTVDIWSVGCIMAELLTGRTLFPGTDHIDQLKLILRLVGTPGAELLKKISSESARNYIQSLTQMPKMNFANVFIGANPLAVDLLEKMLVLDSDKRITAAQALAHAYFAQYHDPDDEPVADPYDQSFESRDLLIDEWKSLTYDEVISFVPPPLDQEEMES
Description: as §1, §2, §3

[17] = biological target: T16, MST2_h (Homo sapiens, UniProt Q13188); test: SelectScreen kinase assay; format: biochemical; details: KM ATP, read-out: % control
T16 construct: purchased Life Technologies (Invitrogen) SelectScreen, Z'-LYTE / Adapta
Description: as §1, §2, §3

Q: Which results are given for `c1cc(CC2CCOCC2)n2nc(Nc3ccc4c(NC5CCOCC5)n[nH]c4c3)nc2c1` [CC-509, [3-(2H-3,4,5,6-tetrahydropyran-4-ylamino)(1H-indazol-6-yl)][5-(2H-3,4,5,6-tetrahydropyran-4-ylmethyl)(2H-1,2,4-triazolo[1,5-a]pyridin-2-yl)]amine]?
A: inhibition of paw swelling ([1]; 15 mg/kg b.i.d. oral, p<0.001): 72%; inhibition of paw swelling ([1]; 15 mg/kg q.d. oral, not significant): 32%; inhibition of paw swelling ([1]; 25 mg/kg q.d. oral, p<0.0001): 74%; ED50 ([1]; rat CIA model): ~10 mg/kg; remaining activity at 3 µM [2]: 10%; remaining activity at 3 µM [3]: 41%; remaining activity at 3 µM [4]: 99%; remaining activity at 3 µM [5]: 29%; remaining activity at 3 µM [6]: 94%; remaining activity at 3 µM [7]: 71%; remaining activity at 3 µM [8]: 91%; remaining activity at 3 µM [9]: 89%; remaining activity at 3 µM [10]: 87%; remaining activity at 3 µM [11]: 62%; remaining activity at 3 µM [12]: 0%; remaining activity at 3 µM [13]: 94%; remaining activity at 3 µM [14]: 104%; remaining activity at 3 µM [15]: 100%; remaining activity at 3 µM [16]: 89%; remaining activity at 3 µM [17]: 46%
